# Measurements: patent US9315494B2, “Alkyl-amide-substituted pyridyl compounds useful as modulators of IL-12, IL-23 and/or IFNα responses” (Bristol-Myers Squibb Company, priority 2012, dated 2016)
# Where two headings read alike, the source gives them in different places.
# Legend:
# [1] = test system: IL-23-stimulated STAT-dependent luciferase reporter in Kit225 T cells; test: Kit225 T cell assay, IL-23 stimulated STAT-dependent luciferase reporter; format: cell-based, human
# In short: (§1)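 Stimulus was either 200 U/mL human recombinant IFNα or 20 ng/mL IL-23, applied for 5-6 h to reporter-bearing Kit225 T cells grown in RPMI/10% FBS. Luciferase expression then quantified by luminescent assay.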
# [2] = test system: IFNα-stimulated STAT-dependent luciferase reporter in Kit225 T cells; test: Kit225 T cell assay, IFNα stimulated STAT-dependent luciferase reporter; format: cell-based, human
# In short: as §1
# [3] = Kit225 T cells, 20 ng/mL human recombinant IL-23, 5-6 hours, luciferase, read-out: IL23 (Kit225 T Cell Inhibition Data)
# [4] = Kit225 T cells, 200 U/mL human recombinant IFNα, 5-6 hours, luciferase, read-out: IFNα (Kit225 T Cell Inhibition Data)
SMILES,"IC50 [1, 3] [nM]","IC50 [2, 4] [nM]","IC50 ([1]; Homo sapiens, KIT225, read-out: IL23 (Kit225 T Cell Inhibition Data)) [nM]","IC50 ([2]; Homo sapiens, KIT225, read-out: IFNα (Kit225 T Cell Inhibition Data)) [nM]"
CNC(=O)c1cnc(Nc2ccc(F)cn2)cc1Nc1ccc(Cl)cc1OC [Example 99],479,310,,
CNC(=O)c1cnc(Nc2cc(C#N)ccn2)cc1Nc1ccccc1S(C)(=O)=O [Example 5],82.2,50,,
CNC(=O)c1cnc(Nc2ccc(F)cn2)cc1Nc1ccccc1C1CC1 [Example 185],2580,2900,,
CNC(=O)c1cnc(Nc2ccc(F)cn2)cc1Nc1ccccc1OC [Example 190],367,510,,
CNC(=O)c1cnc(Nc2cc(C(N)=O)ccn2)cc1Nc1ccc(F)cc1OC [Example 267],2640,1830,,
CNC(=O)c1cnc(Nc2cnc(C#N)cn2)cc1Nc1ccccc1S(C)(=O)=O [Example 41],6120,1910,,
CCN(CC)CCCNc1cc(Nc2cc(Nc3ccccc3S(C)(=O)=O)c(C(=O)NC)cn2)nc(C)n1 [Example 423],380,370,,
CNC(=O)c1cnc(Nc2cc(C)c(C#N)cn2)cc1Nc1ccccc1S(C)(=O)=O [Example 447],200,160,,
CNC(=O)c1cnc(Nc2ccc3ccccc3n2)cc1NC1CCCC1C(N)=O (stereo not shown) [Example 288],3150,1310,,
CNC(=O)c1cnc(Nc2cc(C)c(F)cn2)cc1Nc1cccc(C(=O)NCC(C)(C)O)c1OC [Example 347],190,70,,
CNC(=O)c1cnc(Nc2ccc(N3CCC(C)(O)CC3)cn2)cc1Nc1ccccc1S(C)(=O)=O [Example 436],240,120,,
CNC(=O)c1cnc(Nc2cccc(C(F)(F)F)n2)cc1Nc1ccccc1C(N)=O [Example 95],960,680,,
CNC(=O)c1cnc(Nc2ccc(C#N)c(C)n2)cc1Nc1ccccc1C(N)=O [Example 86],1820,430,,
CNC(=O)c1cnc(Nc2cc(NCc3ccccc3)ncn2)cc1Nc1ccccc1S(C)(=O)=O [Example 424],490,460,,
CNC(=O)c1cnc(Nc2cc(C)nc(C)n2)cc1Nc1cccc(-c2ncn(CC(C)(C)O)n2)c1OC [Example 384],120,170,,
CNC(=O)c1cnc(Nc2ccc(N3CCOCC3)cn2)cc1Nc1ccc(OC)cc1S(C)(=O)=O [Example 7],154,100,,
CNC(=O)c1cnc(Nc2ccc(C(F)(F)F)cn2)cc1NC1CCCC1C(N)=O (stereo not shown) [Example 291],3730,3570,,
CNC(=O)c1cnc(Nc2cc(C)ccn2)cc1Nc1ccccc1S(C)(=O)=O [Example 4],36,30,,
CCNC(=O)c1cnc(Nc2ccc(F)cn2)cc1Nc1ccccc1OC [Example 296],7160,2720,,
CNC(=O)c1cnc(Nc2ccc3ccccc3n2)cc1NC1CCCC1(C)F (stereo not shown) [Example 284],3000,3630,,
CNC(=O)c1cnc(Nc2cc(C)c(F)cn2)cc1Nc1cccc(C(=O)NCCc2ccccc2)c1OC [Example 337],110,80,,
CNC(=O)c1cnc(Nc2cc(C#N)ccn2)cc1Nc1cc(F)ccc1S(C)(=O)=O [Example 58],220,140,,

SMILES,"IC50 [1, 3] [nM]","IC50 [2, 4] [nM]","IC50 ([1]; Homo sapiens, KIT225, read-out: IL23 (Kit225 T Cell Inhibition Data)) [nM]","IC50 ([2]; Homo sapiens, KIT225, read-out: IFNα (Kit225 T Cell Inhibition Data)) [nM]"
CNC(=O)c1cnc(Nc2ccc(F)cn2)cc1Nc1cccc(C(=O)NC2CC2)c1OC [Example 317],210,110,,
CNC(=O)c1cnc(Nc2cccc(-c3ccccc3)n2)cc1Nc1ccc(Cl)cc1OC [Example 116],2190,750,,
CNC(=O)c1cnc(Nc2ccc(F)cn2)cc1Nc1ccc(C(=O)N2CCCCC2)cc1 [Example 244],1160,1260,,
CNC(=O)c1cnc(Nc2ccc(F)cn2)cc1Nc1ccc(C(N)=O)cc1 [Example 242],1740,2710,,
CNC(=O)c1cnc(Nc2ccc(C#N)cn2)cc1Nc1ccccc1C(N)=O [Example 92],3930,1540,,
CNC(=O)c1cnc(Nc2cccnn2)cc1Nc1ccccc1S(C)(=O)=O [Example 36],1310,700,,
CNC(=O)c1cnc(Nc2ccc(N3CCOC3=O)cn2)cc1Nc1ccc(Cl)cc1OC [Example 105],386,190,,
CNC(=O)c1cnc(Nc2cc(C)c(F)cn2)cc1Nc1cccc(C(=O)NCc2c[nH]c3ccccc23)c1OC [Example 353],250,160,,
CNC(=O)c1cnc(Nc2ccc3ccccc3n2)cc1NC1CCCC1(F)F (stereo not shown) [Example 294],,,6350,4900
CNC(=O)c1cnc(Nc2ccc(F)cn2)cc1Nc1ccc(C(=O)N2CCCC2)cc1 [Example 200],904,1300,,
CNC(=O)c1cnc(Nc2cnc(OC)cn2)cc1Nc1ccccc1S(C)(=O)=O [Example 433],290,220,,
CNC(=O)c1cnc(Nc2cc(C)nc(C)n2)cc1Nc1cccc(-c2ccnn2C)c1OC [Example 394],80,30,,
CNC(=O)c1cnc(Nc2ccc(N3CCOCC3)cn2)cc1Nc1cc(F)cc(F)c1OC [Example 406],250,100,,
CNC(=O)c1cnc(Nc2cc(C)nc(C)n2)cc1Nc1cccc(-c2ncnn2CC(F)(F)F)c1OC [Example 381],50,20,,
CNC(=O)c1cnc(Nc2cc(Cl)ccn2)cc1Nc1ccc(F)cc1OC [Example 153],1330,970,,
CNC(=O)c1cnc(Nc2cc(C)c(F)cn2)cc1Nc1ccccc1S(N)(=O)=O [Example 431],40,80,,
CNC(=O)c1cnc(Nc2ccc(F)cn2)cc1Nc1cccc(F)c1C(N)=O [Example 175],434,500,,
CNC(=O)c1cnc(Nc2cc(C)cc(C)n2)cc1Nc1ccccc1S(C)(=O)=O [Example 443],50,20,,
CNC(=O)c1cnc(Nc2ccc(F)cn2)cc1Nc1ccccc1S(N)(=O)=O [Example 429],250,150,,
CNC(=O)c1cnc(Nc2cc(C)c(F)cn2)cc1Nc1cccc(C(=O)NCC(O)c2ccccc2)c1OC (stereo not shown) [Example 331],60,40,,
CNC(=O)c1cnc(Nc2ccc(F)cn2)cc1Nc1ccc(C(=O)N2CCOCC2)cc1S(C)(=O)=O [Example 305],2650,3110,,
CNC(=O)c1cnc(Nc2ccccn2)cc1Nc1ccccc1C(N)=O [Example 68],502,240,,

SMILES,"IC50 [1, 3] [nM]","IC50 [2, 4] [nM]","IC50 ([1]; Homo sapiens, KIT225, read-out: IL23 (Kit225 T Cell Inhibition Data)) [nM]","IC50 ([2]; Homo sapiens, KIT225, read-out: IFNα (Kit225 T Cell Inhibition Data)) [nM]"
CNC(=O)c1cnc(Nc2cc(C)ccn2)cc1Nc1ccc(F)c(F)c1OC [Example 100],158,120,,
CNC(=O)c1cnc(Nc2ccc(F)cn2)cc1Nc1cc(F)ccc1S(C)(=O)=O [Example 55],130,170,,
CNC(=O)c1cnc(Nc2ccn(C(C)C)n2)cc1Nc1cc(F)cc(F)c1OC [Example 408],680,430,,
CNC(=O)c1cnc(Nc2ccccn2)cc1Nc1ccccc1S(C)(=O)=O [Example 3],61.4,70,,
CNC(=O)c1cnc(Nc2ccc(C(F)(F)F)cn2)cc1Nc1ccccc1C(N)=O [Example 82],1230,780,,
CNC(=O)c1cnc(Nc2ccc(F)cn2)cc1Nc1ccc(OC)cc1S(C)(=O)=O [Example 6],91,110,,
CNC(=O)c1cnc(Nc2cc3ccccc3cn2)cc1Nc1ccccc1S(C)(=O)=O [Example 25],87.7,110,,
CNC(=O)c1cnc(Nc2ccc(F)cn2)cc1Nc1ccccc1C(=O)N(C)C [Example 251],1080,670,,
CNC(=O)c1cnc(Nc2cc(F)ccn2)cc1Nc1ccc(Cl)cc1OC [Example 115],632,440,,
CNC(=O)c1cnc(Nc2ccc(F)cn2)cc1Nc1ccc(C(=O)N(C)C)cc1S(C)(=O)=O [Example 306],2530,560,,
CNC(=O)c1cnc(Nc2cc(C#N)ccn2)cc1Nc1ccccc1C(N)=O [Example 84],369,350,,
CNC(=O)c1cnc(Nc2ccc(F)cn2)cc1Nc1ccc(C(=O)NCCc2c[nH]cn2)cc1OC [Example 249],10500,6410,,
CNC(=O)c1cnc(Nc2ccc(F)cn2)cc1Nc1ccc(S(C)(=O)=O)cc1OC [Example 44],1240,1460,,
CNC(=O)c1cnc(Nc2cc(C)c(F)cn2)cc1Nc1cccc(C(=O)NCCCOC)c1OC [Example 349],60,60,,
CNC(=O)c1cnc(Nc2ccc(F)cn2)cc1Nc1ccc(C(=O)N2CCC(F)(F)C2)cc1OC [Example 247],409,260,,
CNC(=O)c1cnc(Nc2ccc(F)cn2)cc1Nc1ccc(F)c(F)c1OC [Example 96],257,210,,
CNC(=O)c1cnc(Nc2cnc(C)cn2)cc1Nc1ccccc1S(C)(=O)=O [Example 40],130,130,,
CNC(=O)c1cnc(Nc2cc(C)ccn2)cc1Nc1cc(F)ccc1S(C)(=O)=O [Example 56],120,50,,
CNC(=O)c1cnc(Nc2ccc(C#N)cn2)cc1Nc1ccc(F)cc1OCF [Example 162],215,460,,
CNC(=O)c1cnc(Nc2ccc(C)cn2)cc1Nc1ccccc1C(N)=O [Example 72],578,380,,
CNC(=O)c1cnc(Nc2ccccn2)cc1Nc1cccc(F)c1OC [Example 172],89.2,50,,
